What was measured:
[1] = cited from earlier work
[2] = rats, cited from earlier work
[3] = Pharmacokinetics of mannoheptulose, twice daily in a nutritionally-balanced composition, older Labrador Retrievers; type: in vivo, Labrador Retriever dogs; conditions: 2 mg/kg; for half-life: female, Labrador Retriever, dog, plasma, oral
Method: The pharmacokinetics of mannoheptulose can be determined in ten adult, female Labrador Retriever dogs fed a nutritionally-balanced composition providing mannoheptulose at levels of 0 or 2 mg/kg of body weight of the dog. Mannoheptulose is provided as avocado extract in the 2 mg/kg diet. The mean age of the dogs is 7.1 years and the age ranges from 5.3 to 8.4 years. Dogs are age-matched across the two composition groups. The average body weight of all dogs is 29 kg and ranges from 25 to 35 kg. The 0 mg/kg composition is fed as a nutritionally-balanced control composition (Eukanuba Senior Maintenance Formula) and it contains no mannoheptulose, avocado extract or avocado meal. The 2 mg/kg composition is the nutritionally-balanced control composition formulated to contain avocado extract to provide mannoheptulose at a dose of 2 mg/kg of body weight of the dog. The amount of composition offered to the dogs is based on feeding guidelines for the control composition and the target weight range and body condition of the dogs. Dogs are fed one-half their daily allotment of composition at 0730 and the remaining half at 1330. Dogs 1, 2, 3, 4 and 5 are fed the composition containing 2 mg/kg mannoheptulose and dogs 6, 7, 8, 9 and 10 are fed the composition containing 0 mg/kg mannoheptulose. Pharmacokinetics of mannoheptulose following twice daily administration of mannoheptulose in a nutritionally-balanced composition is determined by collecting serial blood samples (3 mL) from each dog using a Vacutainer blood collection system and jugular venipuncture. […] Plasma mannoheptulose concentrations are measured using high-performance liquid chromatography tandem mass spectrometry as described herein below.
A one-compartment model is used to calculate mannoheptulose pharmacokinetics based on plasma mannoheptulose levels following twice daily oral administration of mannoheptulose in a nutritionally-balanced composition (PV(t)). The model is: PV(t)=dose/(a·BW)e^−kt where: a=mannoheptulose pool size (dose/(enrichment at to)), BW=body weight, k=rate constant of elimination (In Et−1n E0)/−t, and t=time.
High performance liquid chromatography tandem mass spectrometry (HPLC/MS/MS) is utilized to determine the amount of mannoheptulose present in the plasma of adult dogs. D-mannoheptulose and its chemical analog internal standard (D7-glucose) are isolated from dog plasma by a protein precipitation procedure (described herein below) using a 96-well format. The analyte and internal standard are subjected to reverse-phase high performance liquid chromatographic (HPLC) analysis on a polymeric amino column (2.1×150 mm, 5-μm particles). Detection and quantitation is by mass spectrometry (MS) operating under multiple reaction monitoring MS/MS conditions. Concentrations of D-mannoheptulose in dog plasma can be quantitated from approximately 20 to 5000 ng/mL. The assay requires a 0.1 mL aliquot of dog plasma harvested from a Na2EDTA anti-coagulant blood collection tube. Specimen concentrations are determined by back-calculation using a weighted (1/x^2) linear regression of a calibration curve generated from prepared D-mannoheptulose calibration standards.

[4] = test system: older Labrador Retrievers; assay: ADL-Table (jumping onto table platforms) of older dogs; type: in vivo, Labrador Retriever dogs; conditions: 2 mg/kg, across all four quarters
Method: A total of 39 older Labrador Retrievers are fed a nutritionally-balanced composition providing mannoheptulose at levels of 0 or 2 mg/kg of body weight of the dog. Average age of the dogs (12 neutered males, 27 spayed females) at the start of a 4-year study is 6.7 years with a range of 5.1 to 8.2 years of age for the youngest and oldest dog within the cohort, respectively. The 0 mg/kg composition is fed as a nutritionally-balanced control composition (Eukanuba Senior Maintenance Formula) and it contains no mannoheptulose, avocado extract or avocado meal. The 2 mg/kg composition is the nutritionally-balanced control composition formulated with avocado extract to provide mannoheptulose at a dose of 2 mg/kg body weight of the dog. The nutritionally-balanced composition containing 0 mg/kg mannoheptulose is referred to as Diet 1 within this Example. The nutritionally-balanced composition containing 2 mg/kg mannoheptulose is referred to as Diet 2 within this Example. […]
Shoulder height of each individual dog is measured using a tape measure and recorded. […]
The ADL-Table activity requires the dog to jump on to and down from the platform of four tables of graduated heights, starting with the lowest table height first. […] For both activities, dogs are scored for the number of attempts at each graduated height and the successful completion of each height. […]

[5] = twice daily, after the afternoon meal
[6] = twice daily, after the morning meal

## O=C(CO)[C@@H](O)[C@@H](O)[C@H](O)[C@H](O)CO [mannoheptulose]
[1]; after oral administration
  mannoheptulose ingested appearing in urine: About 5%
[1]; humans, doses of 10 grams, orally
  safety of oral administration: safely administered
[2]; a day after the injection
  injected mannoheptulose remained in the body: 5%
[2]; injection
  injected mannoheptulose excreted unchanged: 66%
  injected mannoheptulose metabolized: 29%
[3]; [5]
  half-life: 5.63 h
  turnover time: 3.90 h
[3]; [6]
  half-life: 5.42 h
  turnover time: 7.8 h
[3]; twice daily oral
  order of plasma kinetics: first order kinetics
[3]; twice daily
  return of plasma mannoheptulose to undetectable levels: by the following morning
[3]; twice daily, afternoon meal
  time to second peak in plasma mannoheptulose after afternoon meal: 4 h
[3]; twice daily, morning meal
  time to peak plasma mannoheptulose levels after initial feeding: 4 h
[4]
  percentage of older dogs successfully jumping onto platforms vs composition devoid of mannoheptulose: a greater percentage of older dogs can successfully jump onto platforms that are 70, 80, 90 and 100% of their shoulder height

Source: patent publication US20090252834A1, “Compositions comprising glucose anti-metabolites” (priority 2004, published 2009)
